The text below walks through data of patent publication US12473289B2, “Heterocyclic compounds as delta-5 desaturase inhibitors and methods of use” (Amgen Inc., priority 2019, dated 2025).

What is called IC50 is the concentration needed to halve the response being measured. Higher therefore signals a need for much substance.

The experiment deals with Delta-5-Desaturase (D5D) (Homo sapiens (Human), UniProt O60427). Description: In vitro measurement of Delta-5-Desaturase inhibitory activity using DGLA-CoA and Arachidonyl-CoA mass spectrometric assays. In kind it is biochemical. The following applies: membrane preparations of D5D-overexpressing HEK293 6E cells; averaged over at least two independent runs. An outline of the steps: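 DGLA-CoA and arachidonyl-CoA were read by RapidFire SPE triple-quad MS (negative mode, MRM) after a 1 h ambient-temperature reaction quenched with acetonitrile. Enzyme was D5D-overexpressing HEK293 6E membranes at 10 μg/mL final; substrate solution held 0.01 mM DGLA plus NADH, ATP and CoA. Inhibition was referenced to DMSO and no-enzyme wells; 4PL IC50.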
Delta-5-Desaturase (D5D), sequence (O60427 whole entry, species assumed): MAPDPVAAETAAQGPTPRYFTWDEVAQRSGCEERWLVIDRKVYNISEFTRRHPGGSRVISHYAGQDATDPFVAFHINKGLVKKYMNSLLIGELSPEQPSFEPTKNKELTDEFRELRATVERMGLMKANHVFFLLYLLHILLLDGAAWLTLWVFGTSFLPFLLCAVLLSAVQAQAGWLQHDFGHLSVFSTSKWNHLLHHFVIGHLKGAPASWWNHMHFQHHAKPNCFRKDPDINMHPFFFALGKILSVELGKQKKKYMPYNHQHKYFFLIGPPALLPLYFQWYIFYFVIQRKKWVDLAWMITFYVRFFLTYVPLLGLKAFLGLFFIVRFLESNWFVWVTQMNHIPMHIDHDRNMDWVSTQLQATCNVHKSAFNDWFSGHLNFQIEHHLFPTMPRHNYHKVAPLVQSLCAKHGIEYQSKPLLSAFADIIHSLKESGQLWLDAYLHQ
Turning to `COc1ccn2c(=O)c(-c3ccc(OCC(F)(F)C(F)F)cc3)c(C(F)(F)F)nc2c1` [Example 9-1, 8-Methoxy-3-(4-(2,2,3,3-tetrafluoropropoxy)phenyl)-2-(trifluoromethyl)-4H-pyrido[1,2-a]pyrimidin-4-one], the IC50 was determined as 11.1 nM. This lies in the double-digit nanomolar range.

`O=c1c(-c2cnn(CC(F)(F)C(F)(F)F)c2)c(C(F)(F)F)nc2n1CCOC2` [Example 39-34, 3-[1-(2,2,3,3,3-pentafluoropropyl)-1H-pyrazol-4-yl]-2-(trifluoromethyl)-4H,6R,7H,9H-pyrimido[2,1-c][1,4]oxazin-4-one] came in with an IC50 of 30.2 nM.

The compound `O=c1c(-c2ccc(OCC(F)(F)F)cc2F)c(C(F)(F)F)nc2ccccn12` [Example 5-1, 3-(2-Fluoro-4-(2,2,2-trifluoroethoxy)phenyl)-2-(trifluoromethyl)-4H-pyrido[1,2-a]pyrimidin-4-one] displayed an IC50 of 12.5 nM.

In the case of `COc1ccn2c(=O)c(-c3cnn(CCC#N)c3)c(C(F)(F)F)nc2c1` [Example 1-24, 3-(4-(8-methoxy-4-oxo-2-(trifluoromethyl)-4H-pyrido[1,2-a]pyrimidin-3-yl)-1H-pyrazol-1-yl)propanenitrile], the IC50 came to 833 nM.

For the compound `COc1ccn2c(=O)c(-c3cnn(C[C@@H]4CC4(F)F)c3)c(C(F)(F)F)nc2c1` [Example 70, 3-(1-{[(1S)-2,2-Difluorocyclopropyl]methyl}-1H-pyrazol-4-yl)-8-methoxy-2-(trifluoromethyl)-4H-pyrido[1,2-a]pyrimidin-4-one], the half-maximal inhibitory concentration (IC50) came to 10.5 nM.

On to `CN(C(=O)F)c1ccn2c(=O)c(-c3cnn(CC(F)(F)C(F)(F)F)c3)c(C(F)(F)F)nc2c1` [Example 23, Methyl(4-oxo-3-(1-(2,2,3,3,3-pentafluoropropyl)-1H-pyrazol-4-yl)-2-(trifluoromethyl)-4H-pyrido[1,2-a]pyrimidin-8-yl)carbamyl fluoride], for which the midpoint of inhibition, the IC50, lay at 1.6 nM.

Consider `Cc1cnn2c(=O)c(-c3cnn(CC4CC4(F)F)c3)c(C(F)(F)F)nc2c1` (centres unmarked) [Example 39-53, 3-{1-[(2,2-difluorocyclopropyl)methyl]-1H-pyrazol-4-yl}-8-methyl-2-(trifluoromethyl)-4H-pyrimido[1,2-b]pyridazin-4-one], for which the half-maximal inhibitory concentration (IC50) was determined as 369 nM.

Consider `Cc1cnn2c(=O)c(-c3cnn(CC(F)(F)C(F)(F)F)c3)c(C(F)(F)F)nc2c1` [Example 39-40, 8-methyl-3-[1-(2,2,3,3,3-pentafluoropropyl)-1H-pyrazol-4-yl]-2-(trifluoromethyl)-4H-pyrimido[1,2-b]pyridazin-4-one], for which half-maximal inhibition (IC50) required 67 nM.

For the compound `CNC(=O)c1ccn2c(=O)c(-c3cnn(CC(F)(F)C(F)(F)F)c3)c(C(F)(F)F)nc2c1` [Example 12-5, N-methyl-4-oxo-3-(1-(2,2,3,3,3-pentafluoropropyl)-1H-pyrazol-4-yl)-2-(trifluoromethyl)-4H-pyrido[1,2-a]pyrimidine-8-carboxamide], the 50% inhibitory concentration (IC50) stood at 313 nM.

The compound `O=c1c(-c2ccc(OCC(F)(F)F)cc2)c(C(F)(F)F)nc2cc(F)ccn12` [Example 2-3, 8-fluoro-3-(4-(2,2,2-trifluoroethoxy)phenyl)-2-(trifluoromethyl)-4H-pyrido[1,2-a]pyrimidin-4-one] returned a concentration for half-maximal inhibition (IC50) of 88.4 nM.

`COc1cc2nc(C(F)(F)F)c(-c3cnn(C[C@H]4CC4(F)F)c3)c(=O)n2cc1F` [Example 71, 3-(1-(((1R)-2,2-difluorocyclopropyl)methyl)-1H-pyrazol-4-yl)-7-fluoro-8-methoxy-2-(trifluoromethyl)-4H-pyrido[1,2-a]pyrimidin-4-one] yielded a 50% inhibitory concentration (IC50) of 31.7 nM.

For the compound `COc1ccn2c(=O)c(-c3ccc(OCC(F)(F)F)nc3)c(C(F)F)nc2c1` [Example 1-13, 2-(difluoromethyl)-8-methoxy-3-(6-(2,2,2-trifluoroethoxy)-3-pyridinyl)-4H-pyrido[1,2-a]pyrimidin-4-one], the midpoint of inhibition, the IC50, lay at 34.2 nM. This IC50 and that of the compound before are within 1.5-fold of each other.

In the case of `COc1ccn2c(=O)c(-c3ncc(OCC(F)(F)F)s3)c(C(F)(F)F)nc2c1` [Example 57, 8-methoxy-3-[5-(2,2,2-trifluoroethoxy)-1,3-thiazol-2-yl]-2-(trifluoromethyl)-4H-pyrido[1,2-a]pyrimidin-4-one], half-maximal inhibition (IC50) was put at 1150 nM.

`COc1ccn2c(=O)c(-c3ccc(OCCF)cc3)c(C(F)(F)F)nc2n1` [Example 1-57, 3-(4-(2-fluoroethoxy)phenyl)-8-methoxy-2-(trifluoromethyl)-4H-pyrimido[1,2-a]pyrimidin-4-one] had an IC50 of 226 nM. This IC50 lies about 5.1-fold lower than the previous one.

`COc1ccn2c(=O)c(-c3cnn(CC4COC4)c3)c(C(F)(F)F)nc2c1` [Example 39-54, 8-methoxy-3-{1-[(oxetan-3-yl)methyl]-1H-pyrazol-4-yl}-2-(trifluoromethyl)-4H-pyrido[1,2-a]pyrimidin-4-one] yielded a concentration for half-maximal inhibition (IC50) of 207 nM.

`NC(=O)c1ccn2c(=O)c(-c3ccc(OCC(F)(F)F)cc3)c(C(F)(F)F)nc2c1` [Example 12-2, 4-oxo-3-(4-(2,2,2-trifluoroethoxy)phenyl)-2-(trifluoromethyl)-4H-pyrido[1,2-a]pyrimidine-8-carboxamide] displayed a half-maximal inhibitory concentration (IC50) of 5.2 nM.

With `COc1ccn2c(=O)c(-c3ccc(OCC(F)(F)F)cc3F)c(C(F)(F)F)nc2n1` [Example 1-53, 3-(2-fluoro-4-(2,2,2-trifluoroethoxy)phenyl)-8-methoxy-2-(trifluoromethyl)-4H-pyrimido[1,2-a]pyrimidin-4-one], 8.5 nM corresponded to half-maximal inhibition (IC50).

The compound `C[S@@+]([O-])c1ccn2c(=O)c(-c3cnn(CC(F)(F)C(F)(F)F)c3)c(C(F)(F)F)nc2c1` [Example 15-6, 8-((R)-methylsulfinyl)-3-(1-(2,2,3,3,3-pentafluoropropyl)-1H-pyrazol-4-yl)-2-(trifluoromethyl)-4H-pyrido[1,2-a]pyrimidin-4-one] registered an IC50 of 173 nM.

Compound `COc1ccc2nc(C(F)(F)F)c(-c3cnn(CC(F)(F)C(F)(F)F)c3)c(=O)n2n1` [Example 39-14, 7-methoxy-3-[1-(2,2,3,3,3-pentafluoropropyl)-1H-pyrazol-4-yl]-2-(trifluoromethyl)-4H-pyrimido[1,2-b]pyridazin-4-one] yielded an IC50 of 44400 nM.

For the compound `Cc1ccc2nc(C(F)(F)F)c(-c3cnn(CCC(F)(F)F)c3)c(=O)n2n1` [Example 39-33, 7-methyl-2-(trifluoromethyl)-3-[1-(3,3,3-trifluoropropyl)-1H-pyrazol-4-yl]-4H-pyrimido[1,2-b]pyridazin-4-one], the IC50 turned out to be 19.9 nM.

`COc1ccn2c(=O)c(-c3ccc(OC(F)F)cc3)c(C(F)(F)F)nc2c1` [Example 1-54, 3-(4-(difluoromethoxy)phenyl)-8-methoxy-2-(trifluoromethyl)-4H-pyrido[1,2-a]pyrimidin-4-one] came in with an IC50 of 6.6 nM.

In turn, `O=c1c(-c2ccc(OCC(F)(F)F)cc2)c(C(F)(F)F)nc2cc(C3CNC3)ccn12` [Example 28, 8-(3-Azetidinyl)-3-(4-(2,2,2-trifluoroethoxy)phenyl)-2-(trifluoromethyl)-4H-pyrido[1,2-a]pyrimidin-4-one] registered a half-maximal inhibitory concentration (IC50) of 2940 nM.

Regarding `COc1ccn2c(=O)c(-c3cnn(CCC(F)(F)F)c3)c(C(F)F)nc2c1` [Example 1-14, 2-(difluoromethyl)-8-methoxy-3-(1-(3,3,3-trifluoropropyl)-1H-pyrazol-4-yl)-4H-pyrido[1,2-a]pyrimidin-4-one], the IC50 is 22.9 nM.

The compound `COC(=O)c1ccc2nc(C(F)(F)F)c(-c3cnn(CC(F)(F)C(F)(F)F)c3)c(=O)n2c1` [Example 39-16, methyl 4-oxo-3-[1-(2,2,3,3,3-pentafluoropropyl)-1H-pyrazol-4-yl]-2-(trifluoromethyl)-4H-pyrido[1,2-a]pyrimidine-7-carboxylate] gave an IC50 of 35100 nM.

Regarding `CCCc1ccc(-c2c(C(F)(F)F)nc3cc(OC)ccn3c2=O)cc1` [Example 1-79, 8-methoxy-3-(4-propylphenyl)-2-(trifluoromethyl)-4H-pyrido[1,2-a]pyrimidin-4-one], the IC50 was found to be 3.6 nM.

`CCNC(=O)c1ccn2c(=O)c(-c3ccc(OCC(F)(F)F)cc3)c(C(F)(F)F)nc2c1` [Example 12-4, N-ethyl-4-oxo-3-(4-(2,2,2-trifluoroethoxy)phenyl)-2-(trifluoromethyl)-4H-pyrido[1,2-a]pyrimidine-8-carboxamide] had a half-inhibitory concentration (IC50) of 685 nM.

`CNC(=O)c1ccn2c(=O)c(-c3ccc(OCC(F)(F)F)cc3)c(C(F)(F)F)nc2c1` [Example 12-1, N-Methyl-4-oxo-3-(4-(2,2,2-trifluoroethoxy)phenyl)-2-(trifluoromethyl)-4H-pyrido[1,2-a]pyrimidine-8-carboxamide] yielded a 50% inhibitory concentration (IC50) of 120 nM.

Regarding `O=c1ccn2c(=O)c(-c3ccc(OCC(F)(F)F)c(F)c3)c(C(F)(F)F)nc2[nH]1` [Example 10-2, 7-(3-fluoro-4-(2,2,2-trifluoroethoxy)phenyl)-8-(trifluoromethyl)-2H-pyrimido[1,2-a]pyrimidine-2,6(1H)-dione], inhibition was half-maximal at 328 nM (IC50). Against the preceding compound, the IC50 is about 2.7-fold higher.

In turn, `COc1ccn2c(=O)c(-c3ccc(OC[C@H]4CC4(F)F)cc3)c(C(F)(F)F)nc2c1` [Example 1-83, 3-(4-(((1R)-2,2-Difluorocyclopropyl)methoxy)phenyl)-8-methoxy-2-(trifluoromethyl)-4H-pyrido[1,2-a]pyrimidin-4-one] gave a half-maximal inhibitory concentration (IC50) of 5.7 nM.

Consider `O=c1c(-c2cnn(CC(F)(F)C(F)(F)F)c2)c(C(F)(F)F)nc2cnc(Cl)cn12` [Example 39-35, 7-chloro-3-[1-(2,2,3,3,3-pentafluoropropyl)-1H-pyrazol-4-yl]-2-(trifluoromethyl)-4H-pyrazino[1,2-a]pyrimidin-4-one], for which it took 13.4 nM to reach half-maximal inhibition (IC50). This IC50 lies about 2.4-fold higher than the previous one.

In the case of `CN(C)Cc1ccn2c(=O)c(-c3cnn(CC(F)(F)C(F)(F)F)c3)c(C(F)(F)F)nc2c1` [Example 26, 8-((Dimethylamino)methyl)-3-(1-(2,2,3,3,3-pentafluoropropyl)-1H-pyrazol-4-yl)-2-(trifluoromethyl)-4H-pyrido[1,2-a]pyrimidin-4-one], the IC50 came to 128 nM. This IC50 lies about 9.6-fold higher than the previous one.

`COc1ccn2c(=O)c(-c3cnc(-c4ccccc4)o3)c(C(F)(F)F)nc2c1` [Example 1-6, 8-methoxy-3-(2-phenyl-1,3-oxazol-5-yl)-2-(trifluoromethyl)-4H-pyrido[1,2-a]pyrimidin-4-one] registered an IC50 of 110 nM.
